Our source for the IC50 values is patent publication US12497386B2, “Estrogen receptor-modulating compounds” (RADIUS PHARMACEUTICALS, INC., priority 2018, dated 2025).

The first test has as its system MCF-7 cells. Description: MCF-7 Proliferation Inhibition Assay. In kind it is cell-based, human. Particulars: 10 pM dose of E2, 7 days incubation, CellTiterGlo viability. The method, then: Proliferation Assay in MCF-7 and T47D Cells
MCF-7 and T47D cells were stripped for 3 days in phenol red-free RPMI1640 media containing 10% charcoal-stripped fetal bovine serum (CS-FBS) and 1% Penicillin/streptomycin (P/S). Cells (volume of 90 μl/well) were seeded in 96 well plates at a density of 2500 cells/well for MCF-7 cells and 1500 cells/well for T47D cells. On the following day, plates were treated with the test compounds (10× concentration in media, volume of 10 μl/well added) both in the absence and in the presence of two doses of E2 (10 pM and 1 nM). The cells were incubated with test compounds for 7 days. The viability of the cells was assessed using CellTiterGlo (Promega, Cat #G7573) according to the manufacturer's instructions. Growth inhibition curves and IC50 values were calculated using the GraphPadPrism 6.0 software. Data values shown in Table 1 were obtained using the 10 pM dose of E2.
As for `CCCNCCc1ccc(Cn2c(-c3ccccc3C)c(F)c3cc(O)ccc32)cc1` [Compound D-67, 3-Fluoro-1-(4-(2-(propylamino)ethyl)benzyl)-2-(o-tolyl)-1H-indol-5-01], the IC50 is < 1 nM.

For `CCCCNCCc1ccc(Cn2c(-c3ccccc3C)c(F)c3cc(O)ccc32)cc1` [Compound D-68, 1-(4-(2-(Butylamino)ethyl)benzyl)-3-fluoro-2-(o-tolyl)-1H-indol-5-01], the IC50 was < 1 nM.

Staying with this test, now noted: Homo sapiens, MCF7, 168 h, 10 pM dose of E2, 7 days incubation, CellTiterGlo viability.
For the compound `Cc1ccccc1-c1sc2cc(O)ccc2c1Oc1ccc(CCNC2CC2)cc1` [BT-05, 3-(4-(2-(Cyclopropylamino)ethyl)phenoxy)-2-(o-tolyl)benzo[b]thiophen-6-ol], the half-maximal inhibitory concentration (IC50) is < 1 nM. For `Cc1ccccc1-c1sc2cc(O)ccc2c1Oc1ccc(CCNCC2CC2)cc1` [BT-12, 3-(4-(2-((Cyclopropylmethyl)amino)ethyl)phenoxy)-2-(o-tolyl)benzo[b]thiophen-6-ol], the IC50 is < 1 nM. For the compound `CCCN1CC(=Cc2ccc(Oc3c(-c4ccccc4C)sc4cc(O)ccc34)cc2)C1` [BT-17, 3-(4-((1-Propylazetidin-3-ylidene)methyl)phenoxy)-2-(o-tolyl)benzo[b]thiophen-6-ol], the IC50 was < 1 nM.

As to `Cc1ccccc1C1=C(Cc2ccc(CCNC3CC3)cc2)c2ccc(O)cc2OCC1` [Bx-06, 5-(4-(2-(Cyclopropylamino)ethyl)benzyl)-4-(o-tolyl)-2,3-dihydrobenzo[b]oxepin-8-ol], the IC50 is < 1 nM. On to `CCNCCc1ccc(CC2=C(c3ccccc3C)CCOc3cc(O)ccc32)cc1` [Bx-07, 5-(4-(2-(Ethylamino)ethyl)benzyl)-4-(o-tolyl)-2,3-dihydrobenzo[b]oxepin-8-ol], for which the IC50 is < 1 nM. Compound `CCNCCc1ccc(Cn2c(-c3ccc(OC)cc3)c(C)c3cc(O)ccc32)cc1` [Compound D-01, 1-(4-(2-(Ethylamino)ethyl)benzyl)-2-(4-methoxyphenyl)-3-methyl-1H-indol-5-ol] returned an IC50 of 1 to 10 nM.

`COc1ccc(-c2c(C)c3cc(O)ccc3n2Cc2ccc(CCNC3CC3)cc2)cc1` [Compound D-02, 1-(4-(2-(Cyclopropylamino)ethyl)benzyl)-2-(4-methoxyphenyl)-3-methyl-1H-indol-5-ol]: the IC50 was in the range of 1 to 10 nM.

With `COc1ccc(-c2c(C)c3cc(O)ccc3n2Cc2ccc(CCNCC3CC3)cc2)cc1` [Compound D-03, 1-(4-(2-((Cyclopropylmethyl)amino)ethyl)benzyl)-2-(4-methoxyphenyl)-3-methyl-1H-indol-5-ol], the IC50 lay within 1 to 10 nM. For the compound `COc1ccc(-c2c(C)c3cc(O)ccc3n2Cc2ccc(CCNC(C)C)cc2)cc1` [Compound D-08, 1-(4-(2-(Isopropylamino)ethyl)benzyl)-2-(4-methoxyphenyl)-3-methyl-1H-indol-5-ol], the IC50 was 1 to 10 nM. Regarding `COc1ccc(-c2c(C)c3cc(O)ccc3n2Cc2ccc(CCNCC(F)(F)F)cc2)cc1` [Compound D-12, 2-(4-Methoxyphenyl)-3-methyl-1-(4-(2-((2,2,2-trifluoroethyl)amino)ethyl)benzyl)-1H-indol-5-ol], the IC50 is > 10 nM. Regarding `CCNCCc1ccc(Cn2c(-c3ccc(OC)cc3)c(Cl)c3cc(O)ccc32)cc1` [Compound D-13, 3-Chloro-1-(4-(2-(ethylamino)ethyl)benzyl)-2-(4-methoxyphenyl)-1H-indol-5-ol], the IC50 lay in the range of 1 to 10 nM. On to `COc1ccc(-c2c(F)c3cc(O)ccc3n2Cc2ccc(CCNC3CC3)cc2)cc1` [Compound D-15, 1-(4-(2-(Cyclopropylamino)ethyl)benzyl)-3-fluoro-2-(4-methoxyphenyl)-1H-indol-5-ol], for which the IC50 was < 1 nM. Regarding `CCNCCc1ccc(Cn2c(-c3ccc(OC)cc3)c(F)c3cc(O)ccc32)cc1` [Compound D-16, 1-(4-(2-(Ethylamino)ethyl)benzyl)-3-fluoro-2-(4-methoxyphenyl)-1H-indol-5-ol], the IC50 was < 1 nM. In the case of `Cc1ccccc1-c1c(F)c2cc(O)ccc2n1Cc1ccc(CCNC2CC2)cc1` [Compound D-28, 1-(4-(2-(Cyclopropylamino)ethyl)benzyl)-3-fluoro-2-(o-tolyl)-1H-indol-5-ol], the half-inhibitory concentration (IC50) is < 1 nM.

Regarding `CCNCCc1ccc(Cn2c(-c3ccccc3C)c(F)c3cc(O)ccc32)cc1` [Compound D-29, 1-(4-(2-(Ethylamino)ethyl)benzyl)-3-fluoro-2-(o-tolyl)-1H-indol-5-ol], the IC50 is < 1 nM. For `Cc1ccccc1-c1c(F)c2cc(O)ccc2n1Cc1ccc(CC(C)NC2CC2)cc1` [Compound D-32, 1-(4-(2-(Cyclopropylamino)propyl)benzyl)-3-fluoro-2-(o-tolyl)-1H-indol-5-ol], the IC50 is < 1 nM. Regarding `Oc1ccc2c(c1)c(F)c(-c1ccccc1C(F)(F)F)n2Cc1ccc(CCNC2CC2)cc1` [Compound D-33, 1-(4-(2-(Cyclopropylamino)ethyl)benzyl)-3-fluoro-2-(2-(trifluoromethyl)phenyl)-1H-indol-5-ol], the IC50 is < 1 nM. Take `CCNCCc1ccc(Cn2c(-c3ccccc3C(F)(F)F)c(F)c3cc(O)ccc32)cc1` [Compound D-34, 1-(4-(2-(Ethylamino)ethyl)benzyl)-3-fluoro-2-(2-(trifluoromethyl)phenyl)-1H-indol-5-ol]: the IC50 was < 1 nM.

With `Cc1cc(F)ccc1-c1c(F)c2cc(O)ccc2n1Cc1ccc(CCNC2CC2)cc1` [Compound D-36, 1-(4-(2-(Cyclopropylamino)ethyl)benzyl)-3-fluoro-2-(4-fluoro-2-methylphenyl)-1H-indol-5-ol], the IC50 was < 1 nM. Consider `Oc1ccc2c(c1)c(F)c(-c1ccccc1Cl)n2Cc1ccc(CCNC2CC2)cc1` [Compound D-37, 2-(2-Chlorophenyl)-1-(4-(2-(cyclopropylamino)ethyl)benzyl)-3-fluoro-1H-indol-5-ol], for which the IC50 was < 1 nM.

As to `Cc1ccccc1-c1c(F)c2cc(O)ccc2n1Cc1ccc(CCNCC2CC2)cc1` [Compound D-39, 1-(4-(2-((Cyclopropylmethyl)amino)ethyl)benzyl)-3-fluoro-2-(o-tolyl)-1H-indol-5-ol], the IC50 was < 1 nM. Same read-out and setting: the result for `Oc1ccc2c(c1)c(F)c(-c1ccccc1C(F)(F)F)n2Cc1ccc(CCNCC2CC2)cc1` [Compound D-40, 1-(4-(2-((Cyclopropylmethyl)amino)ethyl)benzyl)-3-fluoro-2-(2-(trifluoromethyl)phenyl)-1H-indol-5-ol] reads < 1 nM.

In the case of `Cc1ccccc1-c1c(F)c2cc(O)ccc2n1Cc1ccc(CCNC2CCC2)cc1` [Compound D-46, 1-(4-(2-(Cyclobutylamino)ethyl)benzyl)-3-fluoro-2-(o-tolyl)-1H-indol-5-ol], the IC50 was < 1 nM. Take `Cc1cccc(C)c1-c1c(F)c2cc(O)ccc2n1Cc1ccc(CCNC2CCC2)cc1` [Compound D-50, 1-(4-(2-(Cyclobutylamino)ethyl)benzyl)-2-(2,6-dimethylphenyl)-3-fluoro-1H-indol-5-ol]: the IC50 was < 1 nM. As for `Cc1cc(O)ccc1-c1c(F)c2cc(O)ccc2n1Cc1ccc(CCNC2CC2)cc1` [Compound D-52, 1-(4-(2-(Cyclopropylamino)ethyl)benzyl)-3-fluoro-2-(4-hydroxy-2-methylphenyl)-1H-indol-5-ol], the IC50 was < 1 nM. On the same count and under the same terms, the result for `CCCNCCc1ccc(Cn2c(-c3ccccc3-c3ccccc3)c(F)c3cc(O)ccc32)cc1` [Compound D-66, 2-([1,1′-Biphenyl]-2-yl)-3-fluoro-1-(4-(2-(propylamino)ethyl)benzyl)-1H-indol-5-ol] reads < 1 nM.
